The target in experiment [1] is T1, beta-secretase (BACE) in HEK293/APP751sw cells (Homo sapiens, UniProt P56817).
T1 construct: endogenous in cells; host or cells: HEK293p (ATCC CRL-1573) stably expressing human APP751 Swedish
In words: HEK293Swe whole cell assay (Abeta ELISA). The class given is cell-based. The protocol:
(§1) For in vitro enzymatic and cellular assays, test compounds are prepared in DMSO to make up a 10 mM stock solution. The stock solution is serially diluted in DMSO to obtain a ten-point dilution curve with final compound concentrations ranging from […] to 1 pM in a 96-well round-bottom plate before conducting the in vitro enzymatic and whole cell assays.
The routine whole cell assay for the measurement of inhibition of beta-secretase activity utilizes the human embryonic kidney cell line HEK293p (ATCC Accession No. CRL-1573) stably expressing a human APP751 cDNA containing the naturally occurring double mutation Lys651Met652 to […], commonly called the Swedish mutation (noted HEK293/APP751sw) and shown to overproduce Abeta (Citron, et al., Nature, 360, 672-674 (1992)). In vitro Aβ reduction assays have been described in the literature (See Dovey, et al., Journal of Neurochemistry, 76, 173-181 (2001); Seubert, et al., Nature, 361, 260 (1993); and Johnson-Wood, et al., Proc. Natl. Acad. Sci. USA, 94, 1550-1555 (1997)).
(§2) Cells (HEK293/APP751sw at 3.5×10^4 cells/well, containing 200 μL culture media, DMEM containing 10% FBS) are incubated at 37° C. for 4 to 24 h in the presence/absence of inhibitors (diluted in DMSO) at the desired concentration. At the end of the incubation, conditioned media are analyzed for evidence of beta-secretase activity, for example, by analysis of Abeta peptides. Total Abeta peptides (Abeta 1-x) are measured by a sandwich ELISA, using monoclonal 266 as a capture antibody and biotinylated 3D6 as reporting antibody. Alternatively, Abeta 1-40 and Abeta 1-42 peptides are measured by a sandwich ELISA, using monoclonal 2G3 as a capture antibody for Abeta 1-40, and monoclonal 21F12 as a capture antibody for Abeta 1-42. Both Abeta 1-40 and Abeta 1-42 ELISAs use biotinylated 3D6 as the reporting antibody. The concentration of Abeta released in the conditioned media following the compound treatment corresponds to the activity of BACE under such conditions. The 10-point inhibition curve is plotted and fitted with the four-parameter logistic equation to obtain the EC50 and IC50 values for the Abeta-lowering effect.
In general terms: An ELISA detects its analyte on a solid surface through an enzyme-linked reagent.

Experiment [2] addresses T2, beta-secretase (BACE) in primary cortical neurons from PDAPP transgenic embryonic mice (Mus musculus, UniProt P56818).
T2 construct: endogenous in cells; host or cells: primary cortical neurons from Embryonic Day 16 PDAPP transgenic mouse embryos
Nature of the experiment: PDAPP primary neuronal assay (Abeta ELISA). The class given is cell-based. The protocol: as §1
as §2, with “A confirmatory whole cell assay is also run in primary neuronal cultures generated from PDAPP transgenic embryonic mice. Primary cortical neurons are prepared from Embryonic Day 16 PDAPP embryos and cultured in 96 well plates (15×10^4 cells/well in DMEM/F12 (1:1) plus 10% FBS). After 4-6 days in vitro, culture media is replaced with serum free DMEM/F12 (1:1)” for “Cells (HEK293/APP751sw at 3.5×10^4 cells/well,”, “B27 supplement and neurons” for “200 μL culture media, DMEM containing 10% FBS)”, “for” for “for 4 to”, “effect. […]” for “effect.”

A further experiment concerns the target T3, human BACE(1-460):Fc (Homo sapiens, UniProt P56817).
T3 construct: made in house; host or cells: HEK293 cells (transient, pJB02 vector), purified from conditioned media by Protein A
In words: BACE FRET assay. The experiment is classed as biochemical. The protocol:
as §1
Serial dilutions of test compounds are prepared as described above. Compounds are further diluted 20× in KH2PO4 buffer. Ten μL of each dilution is added to each well on row A to H of a corresponding low protein binding black plate containing the reaction mixture (25 μL of 50 mM KH2PO4, pH 4.6, 1 mM TRITON® X-100, 1 mg/mL Bovine Serum Albumin, and 15 μM of FRET substrate) (See Yang, et. al., J. Neurochemistry, 91(6) 1249-59 (2004)). The content is mixed well on a plate shaker for 10 minutes. Fifteen μL of two hundred pM human BACE(1-460):Fc (See Vasser, et al., Science, 286, 735-741 (1999)) in the KH2PO4 buffer is added to the plate containing substrate and test compounds to initiate the reaction. The RFU of the mixture at time 0 is recorded at excitation wavelength 355 nm and emission wavelength 460 nm, after brief mixing on a plate shaker. The reaction plate is covered with aluminum foil and kept in a dark humidified oven at room temperature for 16 to 24 h. The RFU at the end of incubation is recorded with the same excitation and emission setting. The difference of the RFU at time 0 and the end of incubation is representative of the activity of BACE under the compound treatment. RFU differences are plotted versus inhibitor concentration and a curve is fitted with a four-parameter logistic equation to obtain the EC50 and IC50 values. (See Sinha, et al., Nature, 402, 537-540 (2000)).
Human (accession number: AF190725) is cloned from total brain cDNA by […]. The nucleotide sequences corresponding to amino acid sequences #1 to 460 are inserted into the cDNA encoding human IgG1 (Fc) polypeptide (Vassar et al. 1999). This fusion protein of BACE(1-460) and human Fc, named huBACE:Fc, is constructed into the pJB02 vector. Human BACE(1-460):Fc (huBACE:Fc) is transiently expressed in HEK293 cells. 250 μg cDNA of each construct is mixed with Fugene 6 and added to 1 liter HEK293 cells. Four days after the transfection, conditioned media are harvested for purification.
huBACE:Fc is purified by Protein A chromatography. The enzyme is stored at −80° C. in small aliquots.

The next experiment addresses T4, beta-secretase (Mus musculus, UniProt P56818).
T4 construct: from tissue; host or cells: living PDAPP mice; brain cortex, plasma and CSF analysed
In words: In vivo inhibition of beta-secretase in PDAPP mice. The following applies: 3 hours. The source says:
Several animal models, including mouse, guinea pig, dog, and monkey, may be used to screen for inhibition of beta-secretase activity in vivo following compound treatment. Animals used in this invention can be wild type, transgenic, or gene knockout animals. For example, the PDAPP mouse model, prepared as described in Games et al., Nature 373, 523-527 (1995), and other non-transgenic or gene knockout animals are useful to analyze in vivo inhibition of Abeta and sAPPbeta production in the presence of inhibitory compounds. Generally, 2 to 12 month old PDAPP mice, gene knockout mice or non-transgenic animals are administered compound formulated in vehicles, such as corn oil, cyclodextran, phosphate buffers, PHARMASOLVE®, or other suitable vehicles. One to twenty-four hours following the administration of compound, animals are sacrificed, and brains as well as cerebrospinal fluid and plasma are removed for analysis of Abetas, C99 and sAPP fragments. (See Dovey, et al., Journal of Neurochemistry, 76, 173-181 (2001); and Johnson-Wood, et al., Proc. Natl. Acad. Sci. USA, 94, 1550-1555 (1997)).
For standard efficacy studies, animals are dosed with various concentrations of compound and compared to a vehicle-treated control group dosed at the same time. For some time course studies, brain tissue, plasma or cerebrospinal fluid is obtained from selected animals, beginning at time 0 to establish a baseline. Compound is administered to other groups and sacrificed at various times after dosing. Brain tissue, plasma or cerebrospinal fluid is obtained from selected animals and analyzed for the presence of APP cleavage products, including Abeta peptides, sAPPbeta and other APP fragments, for example, by specific sandwich ELISA assays. At the end of the test period, animals are sacrificed and brain tissues, plasma or cerebrospinal fluid are analyzed for the presence of Abeta peptides, C99 and sAPPbeta. Brain tissues of APP transgenic animals are also analyzed for the amount of beta-amyloid plaques following compound treatment.
For example, 3 hours after administration of 100 mg/kg sub-cutaneous dose of the compound of example 19 to young male PDAPP mice, Abeta 1-x peptide, C99 and sAPPb levels are reduced approximately 30%, 50% and 20% in brain cortex, respectively, compared to vehicle-treated mice.

The mark [3] stands for this setting: Table 27, Abeta 1-40 in conditioned media, read-out: HEK 293 Swe A-beta (1-40) ELISA IC50.
Setting [4] is: Table 27, Abeta 1-42 in conditioned media, read-out: HEK 293 Swe A-beta (1-42) ELISA IC50.
Setting [5] is: Table 28, Abeta 1-40 in conditioned media, 24 h, read-out: PDAPP Neuron A-beta (1-40) ELISA IC50.
Where [6] appears, read: Table 28, Abeta 1-42 in conditioned media, 24 h, read-out: PDAPP Neuron A-beta (1-42) ELISA IC50.
Setting [7] is: Table 26, purified recombinant huBACE:Fc, FRET substrate, pH 4.6.
The mark [8] stands for this setting: Table 29, comparator of WO 2007/049532 and enantiomers, read-out: HEK 293 Swe A-beta (1-40) ELISA IC50.
The mark [9] stands for this setting: Table 29, comparator of WO 2007/049532 and enantiomers, read-out: HEK 293 Swe A-beta (1-42) ELISA IC50.
Setting [10] is: Table 29, comparator of WO 2007/049532 and enantiomers, read-out: PDAPP Neuron A-beta (1-40) ELISA IC50.
[11] abbreviates: Table 29, comparator of WO 2007/049532 and enantiomers, read-out: PDAPP Neuron A-beta (1-42) ELISA IC50.
[12] abbreviates: Table 29, comparator of WO 2007/049532 and enantiomers.
[13] abbreviates: 30 mg/kg sub-cutaneous, young male PDAPP mice, brain, vs vehicle-treated mice.
[14] abbreviates: 100 mg/kg sub-cutaneous, young male PDAPP mice, vs vehicle-treated mice.

Structures can show the parent of a compound that is named as a salt. Where two headings read alike, the source gives them in different places.

T2 sequence (P56818 46-501): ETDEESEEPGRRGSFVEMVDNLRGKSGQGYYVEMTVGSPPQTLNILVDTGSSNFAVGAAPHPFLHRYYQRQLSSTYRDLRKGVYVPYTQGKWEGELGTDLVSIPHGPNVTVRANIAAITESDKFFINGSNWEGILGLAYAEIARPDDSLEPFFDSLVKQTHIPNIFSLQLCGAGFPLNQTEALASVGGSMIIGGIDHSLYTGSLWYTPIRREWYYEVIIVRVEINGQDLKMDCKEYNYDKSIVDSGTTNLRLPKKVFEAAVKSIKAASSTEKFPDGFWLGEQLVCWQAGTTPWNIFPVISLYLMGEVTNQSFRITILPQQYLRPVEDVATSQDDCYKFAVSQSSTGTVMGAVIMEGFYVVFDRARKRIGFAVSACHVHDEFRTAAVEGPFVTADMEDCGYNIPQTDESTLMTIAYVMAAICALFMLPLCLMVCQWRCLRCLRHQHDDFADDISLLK
T4 sequence (P56818 46-501): as above
T1 sequence (P56817 46-501): as the sequence (P56818 46-501) above, with S6P, I162V, I165L, T180S, A182V, V340I, A393L, H443Q counted along it
T3 sequence (P56817 22-460): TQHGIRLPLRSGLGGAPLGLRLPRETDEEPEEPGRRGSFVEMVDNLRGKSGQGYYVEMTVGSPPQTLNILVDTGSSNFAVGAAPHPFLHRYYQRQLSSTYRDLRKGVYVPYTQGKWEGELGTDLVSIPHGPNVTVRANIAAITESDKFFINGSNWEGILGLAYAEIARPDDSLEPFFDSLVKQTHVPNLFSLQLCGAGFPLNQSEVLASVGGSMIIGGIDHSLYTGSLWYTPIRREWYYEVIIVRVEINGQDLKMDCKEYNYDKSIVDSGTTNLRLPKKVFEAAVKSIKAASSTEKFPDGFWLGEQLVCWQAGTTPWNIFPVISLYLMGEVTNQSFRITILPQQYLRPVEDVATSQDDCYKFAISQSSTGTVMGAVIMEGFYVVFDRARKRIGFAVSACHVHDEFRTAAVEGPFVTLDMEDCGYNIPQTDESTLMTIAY

The term IC50 denotes the concentration that inhibits the measured activity by half. Turning to `CC1(C)C[C@@](C)(c2ccc(F)c(-c3cncnc3)c2)N=C(N)S1` [Example 21, (S)-4-(4-fluoro-3-(pyrimidin-5-yl)phenyl)-4,6,6-trimethyl-5,6-dihydro-4H-1,3-thiazin-2-amine], the half-maximal inhibitory concentration (IC50) in experiment [1] (setting [3]) amounted to 863 nM; in experiment [1] (setting [4]), 803 nM; in experiment [2] (setting [5]), 355 nM; in experiment [2] (setting [6]), 429 nM; on human BACE(1-460):Fc (setting [7]), 867 nM.
As for `C[C@]1(c2ccc(-c3ccccc3)cc2)CCSC(N)=N1` [reference compound], the IC50 in experiment [1] (setting [8]) was 16500 nM; in experiment [1] (setting [9]), 23700 nM; in experiment [2] (setting [10]), 28100 nM; in experiment [2] (setting [11]), 46800 nM; against human BACE(1-460):Fc (setting [12]), more than 100000 nM.
Regarding `C[C@@]1(c2ccc(-c3ccccc3)cc2)CCSC(N)=N1` [reference compound], the IC50 in experiment [1] (setting [8]) came to 13200 nM; in experiment [1] (setting [9]), 16400 nM; in experiment [2] (setting [10]), 7820 nM; in experiment [2] (setting [11]) it was 10400 nM; against human BACE(1-460):Fc (setting [12]), 28000 nM.
Consider `C[C@@]1(c2cc(-c3cncnc3)c(F)cc2F)CCSC(N)=N1` [Example 5, (S)-4-(2,4-Difluoro-5-pyrimidin-5-yl-phenyl)-4-methyl-5,6-dihydro-4H-[1,3]thiazin-2-ylamine], for which the “CSF Abeta 1-x level reduction” value at beta-secretase (10 mg/kg oral, CSF) is approximately 60%. Also, the “plasma Abeta 1-x level reduction” value on beta-secretase (10 mg/kg oral, plasma) is “approximately 50%”. Further, at beta-secretase (setting [13]), the “Abeta 1-x peptide level reduction” value was “approximately 50%”, the C99 level reduction is approximately 45% and the sAPPb level reduction entry was “approximately 30%”.
For the compound `CC1(c2ccc(-c3ccccc3)cc2)CCSC(N)=N1` (stereo not drawn) [reference compound], the half-inhibitory concentration (IC50) in experiment [1] (setting [8]) amounted to 21400 nM; in experiment [1] (setting [9]), 35300 nM; at human BACE(1-460):Fc (setting [12]), 116000 nM.
Consider `COc1cncc(-c2cccc([C@]3(C)CCSC(N)=N3)c2)c1.Cl.Cl` [Example 19, (S)-4-[3-(5-Methoxy-pyridin-3-yl)-phenyl]-4-methyl-5,6-dihydro-4H-[1,3]thiazin-2-ylamine dihydrochloride], for which, on beta-secretase (setting [14]), the “Abeta 1-x peptide level reduction in brain cortex” value is on record as “approximately 30%”. The “C99 level reduction in brain cortex” value on beta-secretase (setting [14]) is reported as “approximately 50%”. For the same compound, at beta-secretase (setting [14]), the “sAPPb level reduction in brain cortex” value is listed as approximately 20%. Besides, the half-maximal inhibitory concentration (IC50) in experiment [1] (setting [3]) was determined as 335 nM; in experiment [1] (setting [4]), 480 nM; in experiment [2] (setting [5]), 288 nM; in experiment [2] (setting [6]), 214 nM; at human BACE(1-460):Fc (setting [7]) it was 420 nM.
As for `C[C@@]1(c2ccc(F)c(-c3cnccn3)c2)CCSC(N)=N1` [Example 12, (S)-4-(4-fluoro-3-(pyrazin-2-yl)phenyl)-4-methyl-5,6-dihydro-4H-1,3-thiazin-2-amine dihydrochloride], the 50% inhibitory concentration (IC50) in experiment [1] (setting [3]) was 1300 nM; in experiment [1] (setting [4]), 948 nM; in experiment [2] (setting [5]), 658 nM; in experiment [2] (setting [6]), 648 nM; on human BACE(1-460):Fc (setting [7]), 833 nM.
